Columns and labels:
[1] = tested on: Neuraminidase (EC 3.2.1.18); assay: Neuraminidase activity assay (colorimetric kit, Sigma Aldrich MAK121); type: biochemical; settings: maximum activity set 100%; mean of three independent experiments; Figure 4
Procedure: Neuraminidase (EC 3.2.1.18) also known as sialidase is an enzyme that hydrolyzes terminal sialic acid residues on polysaccharide chains. It is predominantly expressed on the surface of viruses and bacteria. For activity measurement, the activity was measured using the neuraminidase activity kit from Sigma Aldrich (Cat.No.: MAK121). Accordingly, the neuraminidase activity is determined by an enzymatic essay in which the sialic acid released by neuraminidase results in the colorimetric product directly proportional to neuraminidase activity in the sample. The reaction master mixture contained assay buffer, (+/-) substrate, cofactors, neuraminidase, and dye-reagent. The activity is expressed as units/L and maximum activity was arbitrarily set 100%. The effect of ethyl pyruvate and ethyl lactate on enzyme activity was evaluated by comparing the change of the absorbance against the samples with substrate (maximum activity) and without the substrate (blank).

influenza virus H9N2 = type: cell-based; settings: MDCK II cells, H9N2, 1 h infection, 2 days culture; ethyl pyruvate 42 mM; Figure 5
[2] = tested on: inflammatory cytokines such as TNF-alpha, IL-1β, IL-6 and IL-8; assay: Release of inflammatory cytokines from LPS-stimulated human whole blood (cytometric bead array); type: cell-based; settings: whole blood diluted 1:5, LPS 10ng/ml, 1 to 20 mM, 6 h; Figure 6
Procedure: Human heparinized whole blood was diluted with RPMI 1640 medium (ThermoFisher Scientific) (1:5) and incubated with LPS (10ng/ml) and increasing concentration of ethyl pyruvate (A-D) or ethyl lactate (E-H) (1 to 20 mM) for 6 h at 37°C with 5% CO2. Following incubation, the plates were centrifuged at 2000g for 10 min and the proinflammatory cytokines were analysed by cytometric bead array using a FACSCalibur and the CellQuestTMSoftware (BD Biosciences).

| Structure (SMILES) | activity of neuraminidase [1] | cytopathic effect of the influenza virus (cellular structures and confluency) (influenza virus H9N2) | release of inflammatory cytokines (TNF-alpha, IL-1β, IL-6, IL-8) [2] | toxic effect on MDCK II cells (MDCK II cells) |
| --- | --- | --- | --- | --- |
| CCOC(=O)C(C)O (centres unmarked) [ethyl lactate] | only minimum inhibitory effect | does not protect MDCK II cells from the cytopathic effect of the virus | effectively inhibited | no toxic effect |
| CCOC(=O)C(C)=O [ethyl pyruvate, Ethyl pyruvate] | inhibits activity of neuraminidase in a concentration-dependent manner | the cellular structures and confluency is preserved | effectively inhibited | no toxic effect |
